# Experimental data from patent publication US20240024379A1, “EXTRACT OF BACTERIA OF THE GENUS SPHINGOMONAS” (L’OREAL, priority 2020, published 2024).
# “And” between values parts separate entries of the source, which are not always exact repeats. Identical values can stand only once.
# Tests used:
# Type in all cases: cell-based
# hTLR2 = target: T1, hTLR2 (Homo sapiens, UniProt O60603); assay: TLR reporter (SEAP/NFkB) test on HEK293 cell line with hTLR2
# T1 construct: host or cells: HEK-293
# Description: (§1) The extract and the controls are tested in duplicate on recombinant HEK-293 cell lines. These cell lines functionally over-express human TLR proteins as well as a reporter gene that is a secreted alkaline phosphatase (SEAP). The production of this reporter gene is governed by an NFkB inducible promoter. The results of activation of the TLR reporters are given in the form of optical density (OD) values.
# (§2) CU-T12-9 and FSL-1 are used on the cells expressing hTLR2 to respectively assess the TLR1/TLR2 and TLR2/TLR6 activities.
# (§3) […] CU-T12-9 is tested at 200 nM and 300 nM.
# (§4) 20 μl of the extract have been used to stimulate the reporter hTLR cell line in 200 μl of reaction volume. For the dose-response on the HEK-Blue-hTLR5 cell lines, the liquid extract obtained according to Example 1 has been tested in duplicate, at the following concentrations: 1000 μg/ml, 500 μg/ml, 250 μg/ml, 125 μg/ml, 62.5 μg/ml, 31.5 μg/ml. For the TLR1/2 and/or TLR2/6 specificity, the liquid extract obtained according to Example 1 has been tested in duplicate at the following concentrations: 100 μg/ml, 30 μg/ml and 10 μg/ml.
# hTLR2-6 = target: T2, hTLR2-6 (Homo sapiens, UniProt O60603+Q9Y2C9); assay: TLR reporter (SEAP/NFkB) test on HEK293 cell line with hTLR2-6
# T2 construct: host or cells: HEK-293
# T2 sequence (O60603 21-784): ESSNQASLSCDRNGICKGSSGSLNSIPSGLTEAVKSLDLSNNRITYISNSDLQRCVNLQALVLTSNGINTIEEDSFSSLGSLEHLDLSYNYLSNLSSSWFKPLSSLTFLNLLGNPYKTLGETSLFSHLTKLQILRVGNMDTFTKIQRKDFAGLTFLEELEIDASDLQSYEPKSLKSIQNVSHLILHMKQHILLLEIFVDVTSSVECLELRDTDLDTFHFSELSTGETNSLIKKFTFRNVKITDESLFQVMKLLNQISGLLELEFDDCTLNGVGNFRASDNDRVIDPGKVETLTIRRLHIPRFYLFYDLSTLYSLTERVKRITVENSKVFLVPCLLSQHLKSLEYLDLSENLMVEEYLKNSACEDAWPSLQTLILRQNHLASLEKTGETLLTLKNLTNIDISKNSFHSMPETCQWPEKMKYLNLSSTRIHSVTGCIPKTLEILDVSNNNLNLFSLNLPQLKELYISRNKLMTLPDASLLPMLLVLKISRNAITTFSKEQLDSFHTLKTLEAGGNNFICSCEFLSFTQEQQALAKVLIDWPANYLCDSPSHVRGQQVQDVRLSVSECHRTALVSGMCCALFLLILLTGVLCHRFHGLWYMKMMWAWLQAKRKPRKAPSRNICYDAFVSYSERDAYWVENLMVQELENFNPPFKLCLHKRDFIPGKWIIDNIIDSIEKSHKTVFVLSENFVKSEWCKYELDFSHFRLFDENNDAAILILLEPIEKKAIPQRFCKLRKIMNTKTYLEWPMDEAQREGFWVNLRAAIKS
# T2 sequence (Q9Y2C9 32-796): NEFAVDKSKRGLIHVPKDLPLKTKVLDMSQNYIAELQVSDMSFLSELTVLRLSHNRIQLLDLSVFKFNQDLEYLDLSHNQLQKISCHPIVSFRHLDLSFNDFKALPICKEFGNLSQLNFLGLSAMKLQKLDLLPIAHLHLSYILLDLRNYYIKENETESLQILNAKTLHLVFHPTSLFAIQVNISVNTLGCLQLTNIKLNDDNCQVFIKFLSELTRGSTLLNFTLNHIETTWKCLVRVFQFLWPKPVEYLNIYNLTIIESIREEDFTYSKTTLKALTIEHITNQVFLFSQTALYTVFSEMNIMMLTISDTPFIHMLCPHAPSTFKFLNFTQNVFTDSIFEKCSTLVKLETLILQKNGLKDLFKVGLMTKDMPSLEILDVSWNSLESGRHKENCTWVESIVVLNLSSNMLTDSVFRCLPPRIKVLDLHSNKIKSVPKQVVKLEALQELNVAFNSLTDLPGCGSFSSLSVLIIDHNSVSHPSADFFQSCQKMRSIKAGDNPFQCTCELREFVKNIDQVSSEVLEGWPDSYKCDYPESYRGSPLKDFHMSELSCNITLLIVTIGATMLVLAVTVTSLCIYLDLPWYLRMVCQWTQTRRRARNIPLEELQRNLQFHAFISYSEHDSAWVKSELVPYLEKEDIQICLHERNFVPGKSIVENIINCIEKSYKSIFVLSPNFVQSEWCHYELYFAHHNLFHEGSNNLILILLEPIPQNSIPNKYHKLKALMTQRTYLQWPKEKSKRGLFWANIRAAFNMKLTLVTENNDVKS
# Description: as §1, §2, §3, §4
# hTLR2-1 = target: T3, hTLR2-1 (Homo sapiens, UniProt O60603+Q15399); assay: TLR reporter (SEAP/NFkB) test on HEK293 cell line with hTLR2-1
# T3 construct: host or cells: HEK-293
# T3 sequence (O60603 21-784): as the sequence (O60603 21-784) above
# T3 sequence (Q15399 25-786): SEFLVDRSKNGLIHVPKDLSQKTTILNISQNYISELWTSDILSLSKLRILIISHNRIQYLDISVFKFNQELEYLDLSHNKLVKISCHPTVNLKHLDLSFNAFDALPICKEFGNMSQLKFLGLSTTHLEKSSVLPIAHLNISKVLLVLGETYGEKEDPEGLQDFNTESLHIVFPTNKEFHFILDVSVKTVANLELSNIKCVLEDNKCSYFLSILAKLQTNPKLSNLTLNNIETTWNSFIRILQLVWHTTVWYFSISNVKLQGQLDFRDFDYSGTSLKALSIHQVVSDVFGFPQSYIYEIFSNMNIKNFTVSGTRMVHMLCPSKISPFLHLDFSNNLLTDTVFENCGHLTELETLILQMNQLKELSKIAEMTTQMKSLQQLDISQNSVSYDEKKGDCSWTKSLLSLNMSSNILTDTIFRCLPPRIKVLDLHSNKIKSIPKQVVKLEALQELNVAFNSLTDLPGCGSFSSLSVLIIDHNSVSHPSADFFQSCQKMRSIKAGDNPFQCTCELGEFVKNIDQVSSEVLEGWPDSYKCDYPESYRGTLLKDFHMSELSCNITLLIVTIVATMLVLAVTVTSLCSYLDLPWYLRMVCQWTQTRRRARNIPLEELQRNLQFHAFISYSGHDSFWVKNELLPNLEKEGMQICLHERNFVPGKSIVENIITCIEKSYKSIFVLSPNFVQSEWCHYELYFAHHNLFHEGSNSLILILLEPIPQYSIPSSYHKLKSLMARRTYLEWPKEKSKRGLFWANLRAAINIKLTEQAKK
# Description: as §1, §2, §3
# 20 μl of the extract have been used to stimulate the reporter hTLR cell line in 200 μl of reaction volume. For the dose-response on the HEK-Blue-hTLR5 cell lines, the liquid extract obtained according to Example 1 has been tested in duplicate, at the following concentrations: 1000 μg/ml, 500 μg/ml, 250 μg/ml, 125 μg/ml, 62.5 μg/ml, 31.5 μg/ml. […]
# [1] = system: IgE production by human B lymphocytes; assay: IgE production by human B lymphocytes stimulated with anti-CD40 and IL-4, ELISA; conditions: Anti CD-40 10 μg/ml + IL-4 10 ng/ml, 14 days; for IgE: single replicates
# Description: In the study, the effect of the extract has been assessed on the IgE production by purified human B lymphocytes (isolation of the CD19^+ lymphocytes from mononuclear cells of the peripheral blood). More specifically, the IgE production has been induced by the stimulation of the B lymphocytes with the combination of anti-CD40 antibody and of IL-4. After 14 days of incubation, the amount of IgE released in the culture supernatants has been quantified using a specific ELISA kit. Concomitantly with the tested extract, 3 other molecules have also been assessed in this test. the reference standard CpG-ODN 2006 (a TLR9 ligand), as well as IFN-γ and PGE2 have been tested as reference compounds.
# The B lymphocytes CD19^+ have been isolated, sown in 24-well plates and incubated over one night in the culture medium. Afterwards, the compounds to be tested, tested alone or in combination, and the reference compounds have been added, or not (controls), and the cells have been pre-incubated for 2 hours. Afterwards, the inducer (a CD40+IL-4 combination) has been added, or not (unstimulated control) and the treatments with the test or the reference compounds have been repeated. Afterwards, the cells have been incubated for 14 days at a final density of 1.7×10^6 cells/ml). […]
# The amount of IgE released in the culture supernatants has been measured using a specific ELISA kit according to the instructions of the supplier.
# Zonula Occludens-1 = assay: Gene expression by RT-qPCR in normal human epidermal keratinocytes, Zonula Occludens-1; conditions: NHEK, 24 hours; 1.00E−07 M, DMSO
# Description: (§5) Normal human epidermal keratinocytes (NHEK) have been sown in 48-well culture plates and then cultured in a culture medium for 3 days at 37° C. and 5% of CO2 with a renewal of the culture medium after first 24 hours of culture. At the end of the incubation, the culture medium has been replaced with a test medium (supplemented with 1.5 mM of CaCl2)) containing no (control) or containing the compounds to be tested, and the cells has then been incubated for 24 hours. All conditions have been carried out in duplicate. At the end of the treatments, the culture media have been eliminated and the cells have been rinsed twice with PBS (without CaCl2, without MgCl2). Afterwards, the total RNA has been isolated using an extraction kit. The quantification of RNA and its quality control have been analyzed by means of Labchip GX (Perkin Elmer). The expression of the selected transcripts has been analyzed by quantitative PCR in two steps. First of all, the cDNAs have been transcribed in the opposite direction from the RNAs. Afterwards, the quantitative PCR experiments have been carried out using a real-time PCR system. […] The RNAs are extracted, quantified and their quality is checked before performing their reverse transcription into cDNA. Finally, an RT-qPCR is carried out for each experimental condition in order to quantify the expression of the set of selected genes.
# Claudin 1 = assay: Gene expression by RT-qPCR in normal human epidermal keratinocytes, Claudin 1; conditions: NHEK, 24 hours; 1.00E−07 M, DMSO
# Description: as §5
# Cornifelin = assay: Gene expression by RT-qPCR in normal human epidermal keratinocytes, Cornifelin; conditions: NHEK, 24 hours; 1.00E−07 M, DMSO
# Description: as §5
# T1 sequence (O60603 21-784): as the sequence (O60603 21-784) above
compound,measurement,setting,value
CNc1ccc([N+](=O)[O-])cc1-n1cnc(-c2ccc(C(F)(F)F)cc2)c1 [CUT12-9],DO,hTLR2; 200 nM,3.066
same,DO,hTLR2; 300 nM,3.227
same,DO,hTLR2-6; 200 nM,0.029
same,DO,hTLR2-6; 300 nM,0.024
same,DO,hTLR2-1; 200 nM,1.474
same,DO,hTLR2-1; 300 nM,1.667
CCCCC[C@H](O)/C=C/[C@H]1[C@H](O)CC(=O)[C@@H]1C/C=C\CCCC(=O)O [PGE2],IgE % of the stimulated control,[1]; 1 μM,58%
same,IgE Mean,[1]; 1 μM,2126 pg/mL
same,IgE,[1]; 1 μM,2942 pg/mL and 1495 pg/mL and 1941 pg/mL
CC1=C(/C=C/C(C)=C/C=C/C(C)=C/CO)C(C)(C)CCC1 [Retinol],"Average expression of the genes, Zonula Occludens-1",Zonula Occludens-1,1.61
same,"Average expression of the genes, Claudin 1",Claudin 1,0.63
same,"Average expression of the genes, Cornifelin",Cornifelin,0.77
CpG-ODN 2006,IgE % of the stimulated control,[1]; 3 μM,<3%
same,IgE Mean,[1]; 3 μM,<123 pg/mL
same,IgE % of the stimulated control,"[1]; 3 μM, listed as CpG-ODN2006",< 3%
same,IgE,[1]; 3 μM,<123 pg/mL
FSL1,DO,hTLR2; 10 pg/ml,1.727
same,DO,hTLR2; 30 pg/ml,2.174
same,DO,hTLR2-6; 10 pg/ml,1.373
same,DO,hTLR2-6; 30 pg/ml,2.047
same,DO,hTLR2-1; 10 pg/ml,0.027
same,DO,hTLR2-1; 30 pg/ml,0.013
"IFN-γ: reference compound, R&D Systems, ref. 285-IF-100/CF",IgE % of the stimulated control,[1]; 10 ng/ml,20%
same,IgE Mean,[1]; 10 ng/ml,738 pg/mL
same,IgE,[1]; 10 ng/ml,1012 pg/mL and 166 pg/mL and 1036 pg/mL
